Entries after “also recorded” stand apart in the source; their conditions may differ.
Columns and labels:
INS-1E cells [1] = assay: Acute insulin secretion from INS-1E cells; format: cell-based, rat; design: Insulin secretion, Mean: unit not given here; conditions: for Insulin secretion, Mean: 16.7 mM glucose, 60 min
Procedure: INS-1E cells were seeded onto 24 well plates before incubation experiments. At the day of the experiment the buffer was changed to a modified Krebs-Ringer-buffer and the cells were preincubated in the same buffer for 60 min. […]

INS-1E cells [2] = assay: Chronic (72 hours) insulin secretion from INS-1E cells; format: cell-based, rat; design: unit not given here
Procedure: INS-1E cells were seeded onto 24 well plates and incubated for 72 hours in RPMI 1640 supplemented with cafestol. After 72 hours the buffer was changed to a modified Krebs Ringer buffer and the cells were incubated for 60 min at low (3.3 mM) and high (16.7 mM) glucose. Hereafter the medium was removed for later insulin analysis using a sensitive rat insulin kit from Linco.

KKAy mice = assay: 10 week dietary intervention study in diabetic KKAy mice; format: in vivo; conditions: 10 weeks; for Fasting plasma glucose compared to the control group: in food pellets
Procedure: (§1) The effects of cafestol were investigated in a 10 week dietary intervention study in a type 2 diabetic animal model. Five weeks old male KKAy mice were randomly assigned to either of three intervention groups (n=12 per group), i.e. 1) Control (no cafestol added), 2) supplementation with 0.382 mg/day of cafestol/kg mice, and 3) supplementation with 1.146 mg/day of cafestol/kg mice. The cafestol was added to food pellets daily. At the beginning of the study (week 0) fasting blood glucose, insulin and lipids (total cholesterol, LDL, HDL and triglycerides) were measured. Every 2nd week fasting blood glucose, body weight and food intake was measured. At the end of the intervention (week 10) fasting blood glucose, insulin, glucagon and lipids (total cholesterol, LDL-cholesterol, HDL-cholesterol) were measured. The pancreas was removed and treated with collagenase and subsequently, the effects on insulin secretory capacity was studied in isolated islets of Langerhans. Furthermore, gene expression levels of key regulatory genes in liver, fat and muscle tissues were measured using RT-PCR.

[3] = tested on: Human skeletal muscle cells; assay: Acute glucose uptake in human skeletal muscle cell line; format: cell-based; conditions: 100 nM insulin, 15 minutes
Procedure: Human skeletal muscle cells were seeded in 24 wells, ([…] cells/well) containing 1 mL growth medium (Promocell, Heidelberg, Germany). Once 70-90% confluence was reached, the growth medium was replaced by 1 mL differentiation medium (Promocell, Heidelberg, Germany). This medium was changed every 2nd day for two weeks until multinucleated syncytia was visible in microscope. Cells were washed twice with PBS. 300 μL of an alternatively modified-Krebs Ringer Buffer (containing 0.1% BSA with 0.1 mM glucose, 1.5 μCi deoxy-d-glucose 2-[1,2-3H(M)] (Perkin Elmer, 2740 Skovlunde, Denmark) and 100 nM insulin was put in each well. Five types of solutions were prepared: one with […] cafestol or rosiglitazone (control), a second with a 10^−6 M cafestol, a third with a 10^−10 M cafestol, a fourth with a 10^−12 M cafestol, and a fifth with a 10^-8 M rosiglitazone. Cells were kept on ice while adding medium. After 15 minutes of incubation at 37° C., 5.0% CO2, cells were washed twice with the modified-Krebs Ringer Buffer supplemented with 0.1% BSA and 50 mM glucose, stopping the incubation and glucose uptake. Hereafter, 0.2 mL 0.1 M NaOH was added to each well for a 30 minute room temperature incubation. 0.1 mL was transferred from each well to a 24 well counting plate (Wallac Oy, Turku, Finland). After adding 0.9 mL Hisafe II scintillator (Perkin Elmer, 2740 Skovlunde, Denmark), plates were stored in the dark for 12 hours before counted using a Trilux Micro Beta Counter (Wallac Oy, Turku, Finland). “Counts per minute” is a direct measure of glucose uptake.

[4] = healthy ileostomy volunteers, cited from earlier work
INS-1E cells [5] = assay: Chronic (72 hours) insulin secretion from INS-1E cells; format: cell-based, rat; conditions: low glucose level (FIG. 2)
[6] = oral 1.5 mg/mouse, cited from earlier work
[7] = tested on: isolated islets of Langerhans; assay: Insulin secretion experiment with isolated islets of Langerhans from KKAy mice after 10 weeks intervention; format: in vivo
Procedure: as §1

With `C[C@@]12CCc3occc3[C@H]1CC[C@@]13C[C@@H](CC[C@H]12)[C@@](O)(CO)C3` [Cafestol] the “Insulin secretion, Mean” value (INS-1E cells [1]; cafestol 10^−6 M) was 0.9013, the “Insulin secretion, Mean” value (INS-1E cells [1]; cafestol 10^−8 M) was 0.8682 and the “Insulin secretion, Mean” value (INS-1E cells [1]; cafestol 10^−10 M) was 0.8715. For the same molecule, the “Insulin secretion, Mean” value (INS-1E cells [1]; cafestol 10^−12 M) was 0.8261, the “Insulin secretion (change vs glucose alone)” value (INS-1E cells [1]; high glucose, concentrations ranging from 10^−10 M to 10^−6 M) was “significant increase” and the “Insulin secretion, Mean” value (INS-1E cells [2]; 3.3 mM glucose, 72 hours incubation with cafestol 10^−8 M) was 0.7482. The “Insulin secretion, Mean” value (INS-1E cells [2]; 3.3 mM glucose, 72 hours incubation with cafestol 10^−8 M, listed as cafestol) was “stimulatory effect”, the “Insulin secretion, Mean” value (INS-1E cells [2]; 3.3 mM glucose, 72 hours incubation with cafestol 10^−10 M) was 0.5853 and the “Insulin secretion, Mean” value (INS-1E cells [2]; 3.3 mM glucose, 72 hours incubation with cafestol 10^−10 M, listed as cafestol) was “neutral effect”. The “Insulin secretion, Mean” value (INS-1E cells [2]; 3.3 mM glucose, 72 hours incubation with cafestol 10^−12 M) was 0.4999, the “Insulin secretion, Mean” value (INS-1E cells [2]; 3.3 mM glucose, 72 hours incubation with cafestol 10^−12 M, listed as cafestol) was “significantly decreased” and the “Insulin secretion, Mean” value (INS-1E cells [2]; 16.7 mM glucose, 72 hours incubation with cafestol 10^−8 M) was 1.661. For the same molecule, the “Insulin secretion, Mean” value (INS-1E cells [2]; 16.7 mM glucose, 72 hours incubation with cafestol 10^−8 M, listed as cafestol) was “significant increase”, the “Insulin secretion, Mean” value (INS-1E cells [2]; 16.7 mM glucose, 72 hours incubation with cafestol 10^−10 M) was 1.322 and the “Insulin secretion, Mean” value (INS-1E cells [2]; 16.7 mM glucose, 72 hours incubation with cafestol 10^−10 M, listed as cafestol) was “significant increase”. The “Insulin secretion, Mean” value (INS-1E cells [2]; 16.7 mM glucose, 72 hours incubation with cafestol 10^−12 M) was 0.9279, the “Fasting plasma glucagon compared to Control” value (KKAy mice; High cafestol group 1.146 mg/day/kg) was “significant decreased” and the “Fasting plasma glucose compared to the control group” value (KKAy mice; high concentration 1.146 mg/day/kg) was “significantly decreased; also recorded: decrease fasting plasma glucose significantly”. The “HOMA-IR compared to control group” value (KKAy mice; high dose of cafestol, p=0.03) was “significantly reduced; also recorded: significant decrease”, the “Fasting plasma glucose compared to the control group” value (KKAy mice; low concentration 0.382 mg/day/kg) was “significantly decreased; also recorded: decrease fasting plasma glucose significantly” and the “HOMA-IR compared to control group” value (KKAy mice; low dose of cafestol) was “tendency to be reduced”. The “Glucose uptake, Counts per minute (± in SEM)” value ([3]; 10^−8 M) was 157.2 ± 2.318 Counts per minute, the “Glucose uptake, Counts per minute (± in SEM)” value ([3]; 10^−8 M, listed as cafestol) was “significantly increased” and the “Glucose uptake, Counts per minute (± in SEM)” value ([3]; 10^−10 M) was 151.0 ± 2.104 Counts per minute. The “Glucose uptake, Counts per minute (± in SEM)” value ([3]; 10^−12 M) was 146.3 ± 1.839 Counts per minute, the “Absorbed from the gastrointestinal tract” value ([4]; estimated from recovery in ileostomy effluent) was “approximately 70%” and the “Dose recovered in urine” value [4] was “approximately 1%”. The Glucagonostatic effect (INS-1E cells [5]) was “significant glucagonostatic effect”, the “Parent compound as share of activity present in portal blood” value ([6]; 50 min after administration) was 70% and the “Parent compound as share of total radioactivity present in portal blood” value ([6]; two minutes after dosing) was 50%. For the same molecule, the “Glucose sensitivity of islets (insulin secretion) compared to Control” value ([7]; after 10 weeks intervention with cafestol) was “more glucose sensitive” and the “Insulin stimulation at low glucose concentration” value ([7]; islets after 10 weeks intervention, low glucose) was “not present”.

— patent US10328048B2, “Cafestol for treating diabetes” (Aarhus Universitet, priority 2014, dated 2019)
